Measurements from PMC8290497, “Taxifolin, an Inhibitor of Sortase A, Interferes With the Adhesion of Methicillin-Resistant Staphylococcal aureus” (Frontiers in Microbiology, 2021).
Converted amounts (≈) assume the structure as drawn.

Legend:
[1] = test system: S. aureus mature biofilms; experiment: Mature biofilm assay (crystal violet); type: cell-based, Staphylococcus aureus; settings: 25–200 μM Tax, 24 h
Protocol: S. aureus biofilms were formed for 24 h at 37°C on the surfaces of the wells of a 96-well plate. Following biofilm formation, different Tax concentrations (25–200 μM) were added to selected wells and the plates were incubated for 24 h at 37°C. The effects of Tax on the mature biofilms were estimated using the crystal violet stain and recorded by a microplate reader.
(§1) FIGURE 3 Effect of SrtA inhibitor on virulence-related phenotypes in S. aureus Newman strain. (A) Impact of Tax on the ability of S. aureus to adhere to fibrinogen. (B) Biofilm formation of S. aureus in the presence of different concentrations of Tax. (C) Mature biofilms of S. aureus in the presence of different concentrations of Tax. The ΔsrtA group represented the positive control. (D) Tax affects internalization of S. aureus into A549 cells. A549 cells were infected with S. aureus pretreated with different concentrations of Tax then lysed 2 h post-infection. The number of viable S. aureus in the cells was quantified by serial dilution on TSA agar plates. (E) Effects of Tax on S. aureus protein A (SpA) using FITC-labeled rabbit IgG. Error bars represent means ± SD of three replicates. *P < 0.05, **P < 0.01, ***P < 0.001 calculated with a two-tailed Student’s t-test.

[2] = test system: surface-anchored SpA of S. aureus; experiment: FITC-IgG binding assay for staphylococcal protein A (SpA); type: cell-based; settings: Staphylococcus aureus, read-out: SpA fluorescence, relative activity % of the WT group
Protocol: Bacterial cultures grown overnight were diluted 1:100 and cultured in an incubator at 37°C with Tax or DMSO to a concentration of 10^8 CFU/mL. The ΔsrtA mutant strain was assayed as a positive control. The bacteria were collected and washed three times in PBS. A 50 μL aliquot of bacterial culture was mixed with an equal volume of FITC-labeled rabbit anti-goat-IgG (1:200, Sigma, United States) then incubated in the dark for 1 h. The bacteria were then washed and suspended in PBS. A multimode microplate reader (Tecan, Spark 20M) was used to measure fluorescence intensity at 535 nm when illuminated at an excitation wavelength of 485 nm.
as §1, with “A549 cells were infected with S. aureus pretreated with different concentrations of Tax then lysed 2 h post-infection.” left out, “(E) Effects of Tax on S. aureus protein A (SpA) using FITC-labeled rabbit IgG.” left out

S. aureus USA300 = experiment: Broth microdilution susceptibility assay (MIC); type: cell-based; settings: Staphylococcus aureus, S. aureus USA 300
Protocol: A broth microdilution assay was performed to determine the minimum inhibitory concentration (MIC) of Tax for S. aureus USA300, as described elsewhere ([Sader et al., 2013]; [Delgado-Valverde et al., 2017]). A growth curve was further evaluated by adding various concentrations of Tax (0–200 μM) to a bacterial culture, then incubating until an OD600 of 0.3 had been reached. S. aureus USA300 and ΔsrtA were used as controls. The OD600 value was recorded for each sample at 1 h intervals for a total of 24 h. The growth rate between S. aureus treated with Tax and S. aureus USA300 was also calculated at each time point.

BALB/c mice = settings: mouse, in vivo, ip, 200 mg/kg
[3] = test system: adhesion of S. aureus USA300 to fibrinogen; experiment: Fibrinogen binding assay (crystal violet); type: cell-based; settings: Staphylococcus aureus, USA300, read-out: inhibition rate of adhesion of bacteria to fibrinogen
[4] = test system: S. aureus biofilm formation; experiment: Biofilm formation assay (crystal violet); type: cell-based, Staphylococcus aureus; settings: coculture with 200 μM Tax, 24 h
Protocol: Bacterial cultures grown overnight were diluted 1:100 in BHI medium supplemented with 3% NaCl and 0.5% glucose. A 200 μL aliquot of each diluted culture was added to separate wells of a 96-well plate, to which different concentrations of Tax (25–200 μM) had been added, then incubated at 37°C for 24 h. Subsequently, the culture medium was replaced with crystal violet to stain the biofilm for 15 min. The wells were then washed thoroughly with sterile deionized PBS three times. The crystal violet stain in each well was decolorized with 200 μL absolute ethanol and then the OD595 value was recorded using a microplate reader.
as §1, with “A549 cells were infected with S. aureus pretreated with different concentrations of Tax then lysed 2 h post-infection.” left out, “(E) Effects of Tax on S. aureus protein A (SpA) using FITC-labeled rabbit IgG.” left out

[5] = test system: S. aureus USA300 pneumonia in C57BL/6J mice; experiment: Murine model of MRSA-induced pneumonia; type: in vivo, mouse
Protocol: To investigate the therapeutic capability of Tax to treat acute pneumonia infection caused by S. aureus USA300, 6- to 8-week-old female C57BL/6J mice were infected intranasally with 2 × 10^8 CFU of S. aureus USA300, then held upright for 30 s to ensure each animal inhaled the bacteria into their lungs. Two h post-infection, the mice were subcutaneously injected with Tax (100 mg/kg). Similarly, mice were challenged with ΔsrtA and sterile PBS containing 0.5% DMSO (control group) as controls. To assess survival, the mice were checked every 12 h for 96 h, and the percentage that had survived was recorded.
For bacterial counts in lung tissue and histopathological examination, mice were infected intranasally with 30 μL (1 × 10^8 CFUs) of S. aureus USA300. Tax (100 mg/kg) was then injected subcutaneously every 12 h after inoculation. The bacterial load in the lungs was determined after the mice in each group were sacrificed 48 h post-infection. The left lung from each animal was removed aseptically and processed to count the bacterial CFUs. The right lung of each mouse was aseptically removed and analyzed by conventional hematoxylin and eosin (H&E) staining using an optical microscope. The ratio of wet to dry lung tissue weight (W/D ratio) was recorded in each case. Wet lung weight was measured 1 min after surface moisture had been removed. Dry lung weight was determined after dehydration at 80°C. The W/D ratio is used to reveal the degree of tissue edema ([Xia et al., 2016]).
FIGURE 6 Effect of treatment with Tax on S. aureus-induced pneumonia in mice. (A) Effect of Tax on the survival of mice (n = 10 per group) infected with a lethal dose of S. aureus. (B) Effect of Tax (100 mg/kg) on bacterial load in the lungs of mice (n = 6). (C) Gross pathological changes and histopathology of mouse lungs treated with Tax (100 mg/kg/d) or untreated. Scale bar: 50 μm. (D) Lung wet-to-dry weight ratio (W/D). Each value represents mean ± SD (n = 5 per group). **P < 0.01, ***P < 0.001; Mann-Whitney test, two-tailed. Horizontal bars represent mean values. Animal data were obtained from two separate experiments.

WT-SrtA = molecular target: T1, WT-SrtA (Staphylococcus aureus, UniProt Q2FV99); experiment: Fluorescence quenching assay, WT-SrtA; type: binding
T1 construct: 6xHis; made in house; host or cells: E. coli BL21 (DE3), plasmid pET28a-SrtA
Text: Molecular modeling studies highlight the benefits of performing site-directed mutagenesis studies. Therefore, fluorescence quenching experiments were utilized to determine the binding affinity of Tax with SrtA and SrtA mutants (D170A, Q172A).

O=C1c2c(O)cc(O)cc2OC(c2ccc(O)c(O)c2)C1O (centres unmarked) [Tax, taxifolin]
effect on mature biofilms [1]: had no effect
activity at 200 µM [2]: 36.1 ± 1.59%
MIC (S. aureus USA300): 512 µg/mL (≈ 1680 µM)
acute toxicity, signs observed (BALB/c mice): no signs of malaise, or tardy or inanimate behavior
inhibition at 200 µM [3]: 35.1 ± 0.49%
biofilm biomass, % of the mass of the untreated control [4]: 29.91 ± 0.51%
bacterial load in the lungs ([5]; Tax 100 mg/kg subcutaneous every 12 h, 48 h post-infection): 6.73 ± 0.69 lg CFU/g
lung histopathology ([5]; Tax 100 mg/kg, infected mice, H&E staining): significantly reduced inflammation
lung wet-to-dry weight ratio (W/D) ([5]; Tax 100 mg/kg, infected mice, P < 0.001): 5.35 ± 0.34
survival rate of mice ([5]; lethal dose S. aureus USA300 intranasal, Tax 100 mg/kg subcutaneous, 96 h, p < 0.01): 50%
Kd (WT-SrtA): 15.6 µM
